Data published in USRE41253E1, “Antineoplastic combinations” (Wyeth, priority 2001, dated 2010).

System: HCT 116 colon adenocarcinoma cells
Assay: Cell Proliferation Procedure (SRB, three days)
Format: cell-based
Settings: for IC50: growth for 3 days, SRB, single agent, read-out: IC50 value, drug alone
Protocol: Cell Proliferation Procedure—HCT 116 colon adenocarcinoma cells were maintained in RPMI 1640 medium (Life Technologies, Inc., Gaithersburg, Md.) supplemented with 10% fetal bovine serum (FBS, Life Technologies) and 50 μg/ml gentamicin (Life Technologies) under 7% CO2 at 37° C. Cells were plated in 96-well microtiter dishes (6000 cells/well) in 200 μl RPMI 1640 medium containing 5% FBS and 50 μg/ml gentamicin and incubated overnight at 37° C. Compound dilutions were prepared in the same medium, at 5× final concentration, and 50 μl of the drug dilution was added to the cell-containing wells. For studies involving combinations of two drugs, serial dilutions of one compound were prepared in the presence of a fixed dose of a second compound. Alternatively, a checkerboard dilution series was employed. Cells were cultured for three days in the presence of the drugs. Untreated cells were included as controls. The percentage of surviving cells was determined using sulforhodamine B (SRB, Sigma-Aldrich, St Louis, Mo.), a protein binding dye. Cellular protein was precipitated in each well by the addition of 50 μl of 50% cold trichloroacetic acid. After 1 hour, the plates were washed extensively in water and dried. SRB dye reagent (0.4% SRB in 1% acetic acid, 80 μl per well) was added and plates were kept at room temperature for ten minutes. Plates were then washed thoroughly in 1% acetic acid and dried. Cell-associated dye was dissolved in 10 mM Tris (150 μl) and the absorbance was read at 540 nm in a microtiter plate reader. The concentration of compound that caused a fixed percentage inhibition of growth was determined by plotting cell survival (relative to untreated cells) against the compound dose.

[1] = Homo sapiens, HCT-116, 72 h, HCT116 cells

Row | IC50 [1] [µg/mL] | Compound | high doses that inhibit the cells (cells somewhat resistant) (HCT 116 cells, CCI-779 alone) [µg/mL] | inhibition at 0.026 µg/mL (Homo sapiens, HCT-116, 72 h, HCT116 cells, 3 days, 0.026 μg/ml CCI-779 alone) [%] | inhibition at 2.08 µg/mL (Homo sapiens, HCT-116, 72 h, HCT116 cells, 3 days, 2.08 μg/ml CCI-779 alone, read-out: inhibition of growth when administered alone) [%]
1 | 4.3 | CO[C@H]1C[C@@H]2CC[C@@H](C)[C@@](O)(O2)C(=O)C(=O)N2CCCC[C@H]2C(=O)O[C@H]([C@H](C)C[C@@H]2CC[C@@H](OC(=O)C(C)(CO)CO)[C@H](OC)C2)CC(=O)[C@H](C)/C=C(\C)[C@@H](O)[C@@H](OC)C(=O)[C@H](C)C[C@H](C)/C=C/C=C/C=C/1C [CCI-779, rapamycin 42-ester with 3-hydroxy-2-(hydroxymethyl)-2-methylpropionic acid] | 5 to 10 | 36 | 41
2 | 0.31 | CCOc1cc2ncc(C#N)c(Nc3ccc(F)c(Cl)c3)c2cc1NC(=O)C=CCN(C)C [EKB-569, 4-dimethylamino-but-2-enoic acid [4-(3-chloro-4-fluoro-phenylamino)-3-cyano-7-ethoxy-quinolin-6-yl]-amide] |  |  | 
